Measured values published in PubChem BioAssay AID330 (DTP/NCI, 2004).
Several values for one entry are separate records, joined by “and”; a condition that tells them apart may be missing. Equal entries are not always repeated. Inconclusive results and toxic doses are left out. How the source made its calls: active means survival T/C of 150% or more; inactive means T/C below 125% in these data.

Test system: P388 leukemia ip, CD2F1 mice, survival T/C
Assay: NCI In Vivo Anticancer Drug Screen. Data for tumor model P388 Leukemia (intraperitoneal) in CD2F1 (CDF1) mice
Settings: endpoint: median survival time, higher = longer survival
In short: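 Mice carrying the transplanted tumor received test compound or vehicle. Survival was recorded in each group, and the value is the treated-group measurement divided by that of the vehicle-treated control group.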

[1] = dose: 25.0 mg/kg/injection, schedule: Q01DX009 (ip), vehicle: saline
[2] = dose: 50.0 mg/kg/injection, schedule: Q01DX009 (ip), vehicle: saline
[3] = dose: 100.0 mg/kg/injection, schedule: Q01DX001 (ip), vehicle: saline with Tween-80
[4] = dose: 200.0 mg/kg/injection, schedule: Q01DX001 (ip), vehicle: saline with Tween-80
[5] = dose: 400.0 mg/kg/injection, schedule: Q01DX001 (ip), vehicle: saline with Tween-80
[6] = dose: 60.0 mg/kg/injection, schedule: Q01DX005 (ip), vehicle: saline with Tween-80
[7] = dose: 120.0 mg/kg/injection, schedule: Q01DX005 (ip), vehicle: saline with Tween-80
[8] = dose: 240.0 mg/kg/injection, schedule: Q01DX005 (ip), vehicle: saline with Tween-80
[9] = dose: 60.0 mg/kg/injection, schedule: Q01DX005 (ip), vehicle: Klucel (hydroxypropylcellulose) (HPC)
[10] = dose: 50.0 mg/kg/injection, schedule: Q01DX009 (ip), vehicle: saline with Tween-80
[11] = dose: 100.0 mg/kg/injection, schedule: Q01DX009 (ip), vehicle: saline with Tween-80
[12] = dose: 200.0 mg/kg/injection, schedule: Q01DX009 (ip), vehicle: saline with Tween-80
[13] = dose: 50.0 mg/kg/injection, schedule: Q01DX009 (ip), vehicle: Klucel (hydroxypropylcellulose) (HPC)
[14] = dose: 100.0 mg/kg/injection, schedule: Q01DX009 (ip), vehicle: Klucel (hydroxypropylcellulose) (HPC)
[15] = dose: 200.0 mg/kg/injection, schedule: Q01DX009 (ip), vehicle: Klucel (hydroxypropylcellulose) (HPC)
[16] = dose: 25.0 mg/kg/injection, schedule: Q01DX009 (ip), vehicle: saline with Tween-80
[17] = dose: 400.0 mg/kg/injection, schedule: Q01DX009 (ip), vehicle: saline with Tween-80

Measured: T/C

C[C@]12CCC(=O)C[C@@H]1CC[C@@H]1[C@@H]2CC[C@]2(C)[C@@H](OC(=O)N(CCCl)N=O)CC[C@@H]12
inactive: dose: 25.0 mg/kg/injection, schedule: Q01DX005 (ip), vehicle: other 105 % of control | dose: 25.0 mg/kg/injection, schedule: Q01DX009 (ip), vehicle: other 120 % of control | [1] 106 % of control | dose: 31.2 mg/kg/injection, schedule: Q04DX003 (ip), vehicle: saline 116 % of control | dose: 50.0 mg/kg/injection, schedule: Q01DX005 (ip), vehicle: other 105 % of control | [2] 121 % of control | dose: 62.5 mg/kg/injection, schedule: Q04DX003 (ip), vehicle: saline 110 % of control | dose: 100.0 mg/kg/injection, schedule: Q01DX005 (ip), vehicle: other 112 % of control | dose: 100.0 mg/kg/injection, schedule: Q01DX009 (ip), vehicle: other 100 % of control

Cn1c2c(c(=O)n(C)c1=O)N1c3c(n(C)c(=O)n(C)c3=O)NN1C(c1ccccc1)=N2
inactive: [3] 95 % of control | [4] 88 % of control | [5] 89 % of control

Cc1ccc(S(=O)(=O)/C(=C/c2c(-c3ccccc3)c(-c3ccccc3)c3n2CCC3)NC=O)cc1
inactive: [3] 96 % of control | [4] 88 % of control | [5] 86 % of control

CC(C)(C)N1CC1CN (configuration not stated)
inactive: [1] 100 % of control | [2] 107 % of control | dose: 100.0 mg/kg/injection, schedule: Q01DX009 (ip), vehicle: saline 105 % of control

C=C1C=CN(C(C)=O)C(OC(C)=O)C1SC(C)(C)C (configuration not stated)
inactive: [6] 97 % of control | [7] 95 % of control | [8] 97 % of control

[O-][n+]1c2ccccc2nc2ccccc21
inactive: dose: 50.0 mg/kg/injection, schedule: Q01DX005 (ip), vehicle: Klucel (hydroxypropylcellulose) (HPC) 115 % of control | dose: 100.0 mg/kg/injection, schedule: Q01DX005 (ip), vehicle: Klucel (hydroxypropylcellulose) (HPC) 110 % of control | dose: 200.0 mg/kg/injection, schedule: Q01DX005 (ip), vehicle: Klucel (hydroxypropylcellulose) (HPC) 100 % of control

COc1ccc(OC)c2c1CCC(O)(C#N)C2 (configuration not stated)
inactive: dose: 3.13 mg/kg/injection, schedule: Q01DX009 (ip), vehicle: other 100 % of control and 101 % of control | dose: 6.25 mg/kg/injection, schedule: Q01DX009 (ip), vehicle: other 100 % of control and 102 % of control | dose: 12.5 mg/kg/injection, schedule: Q01DX009 (ip), vehicle: other 101 % of control

CC1(C)O[C@H]2CC(=O)OC[C@]23[C@H]2CC[C@@]4(C)C(c5ccoc5)OC(=O)[C@H]5O[C@]54[C@]2(C)[C@@H](OC(=O)CCl)C[C@@H]13 (some centres not stated)
inactive: dose: 0.5 mg/kg/injection, schedule: Q01DX009 (ip), vehicle: saline + alcohol 113 % of control | dose: 1.0 mg/kg/injection, schedule: Q01DX009 (ip), vehicle: saline + alcohol 111 % of control

CN1C(=O)n2c(nc3ccccc32)C(Cl)(Cl)C1=O
inactive: [6] 104 % of control | [7] 98 % of control

CCC(C)/C(=C\C#N)NCCCCCCN/C(=C/C#N)C(C)CC (configuration not stated)
inactive: dose: 15.0 mg/kg/injection, schedule: Q01DX005 (ip), vehicle: Klucel (hydroxypropylcellulose) (HPC) 95 % of control | dose: 30.0 mg/kg/injection, schedule: Q01DX005 (ip), vehicle: Klucel (hydroxypropylcellulose) (HPC) 86 % of control | [9] 90 % of control | dose: 240.0 mg/kg/injection, schedule: Q01DX005 (ip), vehicle: Klucel (hydroxypropylcellulose) (HPC) 91 % of control

O=c1[nH]c(CNCCO)nc2sc3c(c12)CCCC3
inactive: [10] 100 % of control | [11] 105 % of control | [12] 96 % of control

O=C(c1ccccc1)N1C=CC(=Cc2ccccc2)C=C1
inactive: dose: 1.56 mg/kg/injection, schedule: Q01DX009 (ip), vehicle: Klucel (hydroxypropylcellulose) (HPC) 102 % of control | dose: 3.12 mg/kg/injection, schedule: Q01DX009 (ip), vehicle: Klucel (hydroxypropylcellulose) (HPC) 106 % of control | dose: 6.25 mg/kg/injection, schedule: Q01DX009 (ip), vehicle: Klucel (hydroxypropylcellulose) (HPC) 101 % of control and 96 % of control

CCOC(=O)NN(C(=O)OCC)C(C(=O)C1CCCCC1)N(NC(=O)OCC)C(=O)OCC
inactive: [13] 102 % of control | [14] 100 % of control | [15] 96 % of control

C/[N+]([O-])=N\Nc1ccccc1SCCSc1ccccc1N/N=[N+](\C)[O-]
inactive: [9] 91 % of control | dose: 120.0 mg/kg/injection, schedule: Q01DX005 (ip), vehicle: Klucel (hydroxypropylcellulose) (HPC) 89 % of control

CCCOC1NC(=O)Oc2ccccc21 (configuration not stated)
inactive: [6] 101 % of control and 104 % of control and 106 % of control | [7] 104 % of control and 111 % of control and 117 % of control | [8] 114 % of control and 117 % of control

O=C1OCC/C1=C1\CCCO1
inactive: dose: 12.5 mg/kg/injection, schedule: Q01DX009 (ip), vehicle: saline with Tween-80 112 % of control and 97 % of control | [16] 100 % of control and 102 % of control | [10] 98 % of control and 99 % of control | [11] 102 % of control and 108 % of control and 116 % of control | [12] 112 % of control | [17] 113 % of control

CC1=NN(C(=O)c2ccncc2)C(=O)C1N=Nc1ccc(S(=O)(=O)Nc2nc(C)cc(C)n2)cc1 (configuration not stated)
inactive: [10] 104 % of control | [11] 95 % of control | [12] 95 % of control

COc1ccc(Cc2nnc(SC)n2-c2ccc(F)cc2)cc1OC
inactive: [6] 102 % of control | [7] 95 % of control | [8] 102 % of control

O=C(CC(O)(C(F)(F)F)C(F)(F)F)CC(O)(C(F)(F)F)C(F)(F)F
inactive: dose: 0.5 mg/kg/injection, schedule: Q04DX003 (ip), vehicle: saline + alcohol 95 % of control | dose: 1.0 mg/kg/injection, schedule: Q04DX003 (ip), vehicle: saline + alcohol 100 % of control | dose: 1.25 mg/kg/injection, schedule: Q04DX003 (ip), vehicle: saline with Tween-80 100 % of control and 95 % of control | dose: 2.0 mg/kg/injection, schedule: Q04DX003 (ip), vehicle: saline + alcohol 90 % of control | dose: 2.5 mg/kg/injection, schedule: Q04DX003 (ip), vehicle: saline with Tween-80 100 % of control | dose: 5.0 mg/kg/injection, schedule: Q04DX003 (ip), vehicle: saline with Tween-80 100 % of control and 91 % of control

Cc1cc(N(c2ccc([N+](=O)[O-])cc2)S(C)(=O)=O)c(C)cc1C=O
inactive: [16] 101 % of control | [10] 99 % of control | [11] 98 % of control

COc1ccc2cc(C(=O)c3cc4ccc(OC)cc4oc3=O)c(=O)oc2c1
inactive: [6] 104 % of control | [7] 101 % of control | [8] 96 % of control

O=c1/c(=C/c2ccc(Cl)cc2)sc2nc(-c3ccccc3)nn12
inactive: [13] 94 % of control | [14] 95 % of control | [15] 101 % of control

COc1ccc(C(=O)c2coc3cc4c(cc23)OCO4)c(O)c1
inactive: dose: 50.0 mg/kg/injection, schedule: Q01DX001 (ip), vehicle: Klucel (hydroxypropylcellulose) (HPC) 88 % of control | dose: 100.0 mg/kg/injection, schedule: Q01DX001 (ip), vehicle: Klucel (hydroxypropylcellulose) (HPC) 88 % of control | dose: 200.0 mg/kg/injection, schedule: Q01DX001 (ip), vehicle: Klucel (hydroxypropylcellulose) (HPC) 88 % of control

CCOC(=O)c1ccc(NC(=S)Nc2ccc(C(=O)OCC)cc2)cc1
inactive: [11] 90 % of control | [12] 90 % of control | [17] 90 % of control

C[n+]1c(-c2cc(Cl)cc(Cl)c2)c2cc(N)ccc2c2ccccc21
inactive: dose: 3.13 mg/kg/injection, schedule: Q01DX009 (ip), vehicle: water 120 % of control | dose: 6.25 mg/kg/injection, schedule: Q01DX009 (ip), vehicle: water 122 % of control | dose: 12.5 mg/kg/injection, schedule: Q01DX009 (ip), vehicle: water 114 % of control | dose: 25.0 mg/kg/injection, schedule: Q01DX009 (ip), vehicle: water 102 % of control

CC1=CCCC(C)(O)C2CC(CCC3(C)OC3CC1)C(C)C(=O)O2 (configuration not stated)
inactive: dose: 7.5 mg/kg/injection, schedule: Q01DX009 (ip), vehicle: Klucel (hydroxypropylcellulose) (HPC) 108 % of control | dose: 15.0 mg/kg/injection, schedule: Q01DX009 (ip), vehicle: Klucel (hydroxypropylcellulose) (HPC) 103 % of control | dose: 30.0 mg/kg/injection, schedule: Q01DX009 (ip), vehicle: Klucel (hydroxypropylcellulose) (HPC) 89 % of control | dose: 60.0 mg/kg/injection, schedule: Q01DX009 (ip), vehicle: Klucel (hydroxypropylcellulose) (HPC) 91 % of control

CCCCN(CCCC)CCC(O)c1cc2c(Cl)cc(Cl)cc2c2cc(C(F)(F)F)ccc12 (configuration not stated)
inactive: [10] 100 % of control | [11] 96 % of control
